Where “and” joins values, the source holds several entries; their conditions need not be identical. Identical values can stand only once. Marks after values point to notes of the source that are not given here.
What was measured:
[1] = molecular target: human α-thrombin (Homo sapiens, UniProt P00734); type: biochemical; conditions: for logIC50 / HS (Hill slope): pH 7.4, 25 °C, Spectrozyme TH; for fold decrease in potency from 9a: ratio of IC50s
[2] = molecular target: thrombin (Homo sapiens, UniProt P00734); assay: Sequential inhibition of thrombin by 9a and PPACK; type: biochemical; conditions: PPACK added following inhibition by 9a (Figure S10)
[3] = Water solubility; type: physicochemical; conditions: devoid of any sulfate group

| SMILES | logIC50 [1] | fold decrease in potency from 9a [1] | HS (Hill slope) [1] | also measured |
| --- | --- | --- | --- | --- |
| CCOC(=O)c1c(C)oc2cc(OC)c(OCc3oc4cc(OC)c(OCc5oc6cc(OC(C)C)c(OS(=O)(=O)[O-])cc6c5C(=O)OCC)cc4c3C(=O)OCC)cc12.[Na+] [9g] | ~ −4.0 ^d | 148 fold | – | – |
| N=C(N)NCCC[C@H](NC(=O)[C@@H]1CCCN1C(=O)[C@H](N)Cc1ccccc1)C(=O)CCl [PPACK, D-Phe-Pro-Arg-chloromethylketone] | – | – | – | thrombin activity after sequential inhibition [2]: totally inactive |
| CCOC(=O)c1c(C)oc2cc(OC)c(OCc3oc4cc(OC)c(OCc5oc6cc(OC)c(OCc7oc8cc(OC)c(OS(=O)(=O)[O-])cc8c7C(=O)OCC)cc6c5C(=O)OCC)cc4c3C(=O)OCC)cc12.[Na+] [compound 17] | −3.80 ± 0.15 | ~236 fold and 225 fold | 1.0 ^c | – |
| CCOC(=O)c1c(C)oc2cc(OC)c(OCc3oc4cc(OC)c(OCc5oc6cc(OCC)c(OS(=O)(=O)[O-])cc6c5C(=O)OCC)cc4c3C(=O)OCC)cc12.[Na+] [9f] | −5.23 ± 0.11 | 8.6 fold | 2.3 ± 1.2 | – |
| CCOC(=O)c1c(C)oc2cc(OC)c(OCc3oc4cc(OC)c(OCc5oc6cc(OC)c(OS(=O)(=O)[O-])cc6c5C(=O)OCCOC)cc4c3C(=O)OCC)cc12.[Na+] [9d] | – | > 500 fold | – | – |
| CCOC(=O)c1c(C)oc2cc(OC)c(OCc3oc4cc(OC)c(OCc5oc6cc(OC)c(OS(=O)(=O)[O-])cc6c5C(=O)OC)cc4c3C(=O)OCC)cc12.[Na+] [9b] | −5.69 ± 0.13 | – | 1.0 ^c | – |
| CCOC(=O)c1c(COc2cc3c(C(=O)O)c(C)oc3cc2OC)oc2cc(OC)c(OCc3oc4cc(OC)c(OS(=O)(=O)[O-])cc4c3C(=O)OCC)cc12.[Na+] [compound 14] | −4.18 ± 0.17 | – | 1.0 ^c | fold reduction in potency from 13 ([1]; allyl ester to carboxylic acid): 2 fold |
| CCOC(=O)c1c(C)oc2cc(OC)c(OCc3oc4cc(OC)c(OCc5oc6cc(OS(=O)(=O)[O-])c(OC)cc6c5C(=O)OCC)cc4c3C(=O)OCC)cc12.[Na+] [compound 23] | −3.81 ± 0.13 | – | 1.2 ± 0.3 | – |
| CCOC(=O)c1c(COc2cc3c(C(=O)OCC)c(COc4cc5c(C(=O)O)c(C)oc5cc4OC)oc3cc2OC)oc2cc(OC)c(O)cc12 [compound 12] | – | – | – | water solubility [3]: fairly good water solubility |
| C=CCOC(=O)c1c(C)oc2cc(OC)c(OCc3oc4cc(OC)c(OCc5oc6cc(OC)c(OS(=O)(=O)[O-])cc6c5C(=O)OCC)cc4c3C(=O)OCC)cc12.[Na+] [compound 13] | −4.51 ± 0.06 | 46 fold | 3.5 ± 1.2 | – |
| CCOC(=O)c1c(C)oc2cc(OC)c(OCc3oc4cc(OC)c(OCc5oc6cc(OC)c(OS(=O)(=O)[O-])cc6c5C(=O)OC(C)(C)C)cc4c3C(=O)OCC)cc12.[Na+] [9c] | −3.78 ± 0.07 | – | 2.1 ± 0.5 | – |

Reference: publication PMC3717983 (Journal of medicinal chemistry, 2013)
